Source: patent publication US11512074B2, “Substituted diamino heterocyclic carboxamide compound and a composition containing the compound and use thereof” (Shenzhen TargetRx, Inc., priority 2018, dated 2022)
pIC50: −log10 of the molar value. Where two headings read alike, the source gives them in different places.

Legend:
MOLM-13 cells = assay: Inhibition of cell MOLM-13 proliferation (CTG assay); format: cell-based; conditions: Homo sapiens, 72 hours, read-out: MOLM-1 IC50
Source text: (§1) Cell MV-4-11 (ATCC, Cat. No. CRL-9591), cell MOLM-13 (COBIOER, Cat. No. CBP60678), RPMI-1640 (GIBCO, Cat. No. A10491-01), penicillin-streptomycin (GIBCO, Cat. No. 15140-122), fetal bovine serum (GIBCO, Cat. No. 10099-141), phosphate buffer solution PBS (GIBCO, Cat. No. 10010-031), DMSO (Sigma, Cat. No. D8418-1L), CelltiterGlo Assay kit (CTG) (Promega, Cat. No. G7573), 96-well plate with transparent flat bottom and black walls (PerkinElmer, Cat. No. 6005680-50), plate shaker (QILINBEIER, Cat. No. B-9002), centrifuge (Eppendorf, Cat. No. 5804R), CO2 incubator (Thermo Scientific, Cat. No. 371), microscope (OLYMPUS Cat. No. CKX41), multi-plate reader (PerkinElmer, Cat. No. EnVision).
(§2) (2) Preparation of Cell Suspension • a) The medium was collected from the culture bottle and centrifuged at 1000 rpm for 5 min. • b) The supernatant was discarded, and the cells were resuspended in medium containing 10% fetal bovine serum, and counted to prepare a cell suspension (cell viability was greater than 90%). • c) The cell suspension was added into a 96-well plate, with […] in each well, namely 5000 MV-4-11 cells/well; 5000 MOLM-13 cells/well. • d) The cell plate was cultured overnight in a 37° C., 5% CO2 incubator.
(§3) Dilution of Compounds in DMSO: • a) MV-4-11 cells: The compounds were diluted with DMSO from 10 mM to 60 uM, and then subjected to a 3-fold serial gradient dilution in DMSO from 60 uM, resulting in 9 concentrations. • b) MOLM-13 cells: The compounds were diluted with DMSO from 10 mM to 200 uM, and then subjected to a 3-fold serial gradient dilution in DMSO from 200 uM, resulting in 9 concentrations. • c) Compound Taxol was diluted with DMSO from 10 mM to 200 uM, and then subjected to a 3-fold serial gradient dilution in DMSO from 200 uM, resulting in 9 concentrations.
(§4) (4) Treatment of Cells with Compounds (after the Overnight Incubation of the Cell Plate) • a) Each well was replenished with 99 μl of growth medium containing 10% FBS, and then 1 μl of the diluted compound was added to the well. The concentration of DMSO was 0.5%. • b) Concentrations of the tested compounds were: MV-4-11 cells: 300, 100, 33.3, 11.1, 3.7, 1.23, 0.41, 0.137, 0.046, 0 [nM]. • MOLM-13 cells: 1000, 333.3, 111.1, 37.04, 12.35, 4.1, 1.37, 0.46, 0.15, 0 [nM]. • c) Concentrations of control compound Taxol were: 1000, 333.3, 111.1, 37.04, 12.35, 4.12, 1.37, 0.46, 0.15, 0 [nM]. • d) The cell plate was placed in the incubator for 72 hours.
(§5) (5) CTG Assay • a) The test plate was placed at room temperature and equilibrated for 30 minutes, and 60 μl of the culture medium was discarded. • b) 60 μl of CTG reagent (CelltiterGlo kit) was added, and the plate was placed on a rapid plate shaker to shake for 2 min, and then let it stand at room temperature for 20 min. • c) Envision was used to read the values.
(§6) IC50 values were calculated using GraphPad Prism 6 software. The IC50 (half inhibitory concentration) values of the compounds were obtained by the following non-linear fitting formula. Y=Bottom+(Top−Bottom)/(1+10^((Log IC50−X)*HillSlope)) • X: Log value of the compound concentration • Y: Inhibition rate (% inhibition) % inhibition (inhibition rate)=100*(value of the High Control-value of the test compound well)/(value of the High Control-value of the Low Control)

[1] = Pharmacokinetic experiment in rats; format: in vivo, Sprague-Dawley rats; conditions: rat; for AUC(0-t) / Cmax / Tmax / half-life / AUC(0-inf) / MRT inf: male, Sprague-Dawley, plasma; for AUC(0-inf): read-out: AUCINF_pred; for MRT inf: read-out: MRTINF_pred
Method: Six male Sprague-Dawley rats, 7 to 8 weeks old, weighing approximately 210 g, were divided into 2 groups with 3 rats in each group. The pharmacokinetic differences of the compounds were compared after they were administered to the rats at a single dose through vein (in vein 3 mg/kg) or mouth (orally 10 mg/kg).
The rats were fed with standard feed and water, and fasted 16 hours before the experiment. The drugs were dissolved with PEG400 and dimethyl sulfoxide. The blood samples were collected from eyelids at the time point of 0.083, 0.25, 0.5, 1, 2, 4, 6, 8, 12 and 24 hours after administration.
The rats were anesthetized for a short time after inhaling ether, and 300 μL of blood samples was collected from the eyelids and put into test tubes, which contains 30 μL of 1% heparin salt solution. The test tubes were dried overnight at 60° C. prior to use. After the blood sample collection at the last time point, the rats were sacrificed after the ether anesthesia.
Immediately after the collection of the blood samples, the test tubes were gently inverted at least 5 times to ensure the fully mixing and placed on ice. The blood samples were centrifuged at 4° C., 5000 rpm for 5 minutes to separate the plasma from the red blood cells. 100 μL of plasma was pipetted into a clean plastic centrifuge tube, with the name of the compound and time point on it. The plasma was stored at −80° C. before analysis, and LC-MS/MS was used to determine the concentration of the compounds disclosed herein in plasma. Pharmacokinetic parameters were calculated based on the plasma concentrations of each animal at different time points.

MV-4-11 cells = assay: Inhibition of cell MV-4-11 proliferation (CTG assay); format: cell-based; conditions: Homo sapiens, MV4-11, 72 hours
Source text: as §1, §2, §3, §4, §5, §6

Ba/F3 parental cells = assay: Inhibition of Ba/F3 parental cell proliferation (CTG); format: cell-based; conditions: Mus musculus, BaF3, 72 hours, with IL-3
Method: (§7) Cell lines were cultured under the condition of 37° C., 5% CO2 and 95% humidity: cell line Ba/F3 parental (suspended, 3000 cells/well, medium was RPMI-1640+10% FBS+8 ng/ml IL-3), cell line Ba/F3 FLT3-ITD (suspended, 3000 cells/well, medium was RPMI-1640+10% FBS)
(§8) Reagents and materials: Fetal bovine serum (FBS, GBICO, Cat. No. 10099-141), CellTiter-Glo® Luminescent Cell Viability Assay (Promega, Cat. No. G7572), 96-well plate with transparent flat bottom and black walls (Corning®, Cat. No. 3603), control compound AC220 (Selleck, Cat. No. S1526).
(§9) Cell Culture and Inoculation: • 1. Cells in the logarithmic growth phase were harvested and counted using a platelet counter. The cell viability was determined by trypan blue exclusion method to ensure that the cell viability was greater than 90%; • 2. The cell concentration was adjusted and 90 μL of the cell suspension was added into a 96-well plate respectively; • 3. The cells in the 96-well plate were cultured overnight under the condition of 37° C., 5% CO2 and 95% humidity.
(§10) Drug Dilution and Dosing: • 1. The 10-fold drug solutions were prepared with a maximum concentration of 100 μM, which was diluted using a 3.16-fold serial gradient dilution, resulting in 9 concentrations. 10 μL of the drug solutions was added to each well of the 96-well plate inoculated with Ba/F3 parental cells; and each drug concentration was set in triplicate. • 2. The 10-fold drug solutions were prepared with a maximum concentration of 10 μM, which was diluted using a 3.16-fold serial gradient dilution, resulting in 9 concentrations. 10 μL of the drug solutions was added to each well of the 96-well plate inoculated with Ba/F3 FLT3-ITD cells; and each drug concentration was set in triplicate. • 3. The cells in the 96-well plate with drugs were cultured at 37° C., 5% CO2 and 95% humidity for 72 hours, and then CTG analysis was carried out.
(§11) Plate Reading at the End Point: • 1. CTG reagent was thawed and the cell plate was equilibrated to room temperature for 30 minutes; • 2. Equal volume of the CTG solution was added to each well; • 3. The cell plate was shaked on the orbital shaker for 5 minutes to lyse the cells; • 4. The cell plate was placed at room temperature for 20 minutes to stabilize the cold light signal; • 5. The cold light values were read.
(§12) GraphPad Prism 8.0 software was used to analyze the data, and the data was fitted using the non-linear S-curve regression to get a dose-effect curve, and IC50 values were calculated. Cell viability (%)=(Lum of test drug−Lum of medium control)/(Lum of cell control−Lum of medium control)×100%.

Ba/F3 FLT3-ITD cells = assay: Inhibition of Ba/F3 FLT3-ITD cell proliferation (CTG); format: cell-based; conditions: 72 hours, read-out: BaF3 [FLT3-ITD] IC50
Method: as §7, §8, §9, §10, §11, §12

For `[2H]C([2H])([2H])C([2H])([2H])c1nc(C(N)=O)c(Nc2ccc(N3CCC(N4CCN(C)CC4)CC3)c(OC)c2)nc1NC1CCOCC1` [Compound T-4, 6-(ethyl-d5)-3-((3-methoxy-4-(4-(4-methylpiperazin-1-yl)piperidin-1-yl)phenyl)amino)-5-((tetrahydro-2H-pyran-4-yl)amino)pyrazine-2-carboxamide], the pIC50 (MOLM-13 cells) was 7.89, the AUC(0-t) ([1]; IV 3 mg/kg) was 639 ng·h/mL and the Cmax ([1]; IV 3 mg/kg) was 138 ng/mL. The Tmax ([1]; IV 3 mg/kg) was 0.08 h, the half-life ([1]; IV 3 mg/kg) was 4.52 h and the AUC(0-inf) ([1]; IV 3 mg/kg) was 651 ng·h/mL. For the same molecule, the MRT inf ([1]; IV 3 mg/kg) was 4.56 h, the AUC(0-t) ([1]; PO 10 mg/kg) was 666 ng·h/mL and the Cmax ([1]; PO 10 mg/kg) was 61.2 ng/mL. It also gave a Tmax ([1]; PO 10 mg/kg) of 4 h, a half-life ([1]; PO 10 mg/kg) of 4.07 h and an AUC(0-inf) ([1]; PO 10 mg/kg) of 687 ng·h/mL. For the same molecule, the MRT inf ([1]; PO 10 mg/kg) was 8.11 h, the Vz_pred ([1]; IV 3 mg/kg) was 30.45 L/kg and the Vz_pred ([1]; PO 10 mg/kg) was 87.60 L/kg. It also gave an F ([1]; PO 10 mg/kg vs IV 3 mg/kg) of 31.26% and a pIC50 (MV-4-11 cells) of 8.72.

Molecule `[2H]C1([2H])CN(c2ccc(Nc3nc(NC4CCOCC4)c(CC)nc3C(N)=O)cc2OC)CC([2H])([2H])C1N1CCN(C)CC1` [Compound T-7, 6-ethyl-3-((3-methoxy-4-(4-(4-methylpiperazin-1-yl)piperidin-1-yl-3,3,5,5-d4)phenyl)amino)-5-((tetrahydro-2H-pyran-4-yl)amino)pyrazine-2-carboxamide] has a pIC50 (Ba/F3 parental cells) of 5.07, a pIC50 (MOLM-13 cells) of 7.90 and a pIC50 (Ba/F3 FLT3-ITD cells) of 7.27. It also gave a pIC50 (MV-4-11 cells) of 8.79.

Molecule `[2H]C([2H])([2H])Oc1cc(Nc2nc(NC3CCOCC3)c(C([2H])([2H])C([2H])([2H])[2H])nc2C(N)=O)ccc1N1CCC(N2CCN(C)CC2)CC1` [Compound T-6, 6-(ethyl-d5)-3-((3-(methoxy-d3)-4-(4-(4-methylpiperazin-1-yl)piperidin-1-yl)phenyl)amino)-5-((tetrahydro-2H-pyran-4-yl)amino)pyrazine-2-carboxamide] has a pIC50 (Ba/F3 parental cells) of less than 5.00, a pIC50 (MOLM-13 cells) of 7.92 and a pIC50 (Ba/F3 FLT3-ITD cells) of 7.16. The pIC50 (MV-4-11 cells) was 8.68.
